Patent publication US20250057849A1, “ANTIVIRAL COMPOSITION COMPRISING NUCLEOSIDE ANALOGUES DERIVED FROM NUCLEIC ACID AND PHARMACEUTICALLY ACCEPTABLE SALT THEREOF” (CJ CheilJedang Corporation, priority 2021, published 2025)
pIC50: −log10 of the molar value. Where two headings read alike, the source gives them in different places.

Experiments:
CPV = CPV infection inhibition in MDCK cells (qPCR); format: cell-based, Canine Parvovirus; conditions: for SI (selectivity index), CPV: CC50/IC50; for pIC50: 96 h, MDCK cells, 200 TCID50/well CPV, after 4 days, read-out: CPV infection inhibition concentration IC50 (Table 10)
Experimental: For the isolated DNA, using CPV-specific primers (F-[…] , R-[…] ) and realtime RT-qPCR experimental method (95° C., 5 minutes 1 cycle, 95° C., 10 seconds, 60° C., 30 seconds, 40 cycles), the antiviral efficacy of the materials was confirmed.

[1] = Cytotoxicity (WST-1 / DAPI staining), PRRSV test cells; conditions: monkey, Marc-145 cells (monkey kidney)
in vitro = conditions: monkey
[2] = system: Swine Influenza virus (SIV); test: organism not typed; format: cell-based; conditions: for SI (selectivity index), SIV: CC50/IC50; for pIC50: MDCK, 96 h, read-out: SIV infection inhibition concentration IC50
[3] = Cytotoxicity, MDCK cell tests; conditions: dog, MDCK cells
[4] = Cytotoxicity, PK15 cell test; conditions: pig, PK15 cells
BRV = BRV infection inhibition in MDBK cells (RT-qPCR); format: cell-based, Bovine Rotavirus; conditions: for SI (selectivity index), BRV: CC50/IC50; for pIC50: Rotavirus A, 96 h, MDBK cells, 200 TCID50/well BRV, after 4 days, read-out: BRV infection inhibition concentration IC50
Experimental: The next day, BRV of 200 TCID50/well and inosine, xanthosine and guanosine in the dialdehyde and acyclic diol forms were treated to the cells simultaneously, and after 4 days, using commercialized Viral gene (DNA/RNA) extraction kit (iNtRON, 101410754), RNA was isolated.
For the isolated RNA, using BRV-specific primers (F-[…] , R-[…] ) and realtime RT-qPCR experimental method (95° C., 10 minutes 1 cycle, 95° C., 15 seconds, 60° C., 15 seconds, 72° C., 20 seconds 40 cycles), the antiviral efficacy of the materials was confirmed.

Vero cell line = conditions: monkey
[5] = system: PEDV (G1a type, SM98 strain); test: PEDV infection inhibition in Vero cells (PEDV detection kit on isolated RNA); format: cell-based, Porcine Epidemic Diarrhea virus; conditions: for SI (selectivity index), PEDV: CC50/IC50; for pIC50: Porcine epidemic diarrhea virus, 48 h, Vero cells, 200 TCID50/ml PEDV, after 2 days, read-out: PEDV infection inhibition concentration IC50
Experimental: The next day, PEDV (G1a type, SM98 strain) of 200 TCID50/ml and inosine, xanthosine and guanosine in the dialdehyde and acyclic diol forms were treated to the cells simultaneously, and after 2 days, using commercialized Viral gene (DNA/RNA) extraction kit (iNtRON, 101410754), RNA was isolated. For the isolated RNA, using commercialized PEDV detection kit (Mediandiagnostics, NS-PED-31), the antiviral efficacy of the materials was verified.

IBV = test: microbe, parasite or virus in culture; format: cell-based, Avian Infectious Bronchitis virus; conditions: for pIC50: read-out: IBV infection inhibition concentration IC50; for SI (selectivity index), IBV: CC50/IC50
PCV2 = PCV2 infection inhibition in PK15 cells (qPCR); format: cell-based, Porcine Circovirus Type 2; conditions: for SI (selectivity index), PCV2: CC50/IC50; for pIC50: Porcine circovirus 2, PK-15, 96 h, PK15 cells, 200 TCID50/well PCV2, after 4 days, read-out: PCV2 infection inhibition concentration IC50
Experimental: For the isolated DNA, using PCV2-specific primers (F-[…] , R-[…] ) and realtime RT-qPCR experimental method (95° C., 30 seconds 1 cycle, 95° C., 20 seconds, 56° C., 60 seconds 40 cycles), the antiviral efficacy of the materials was verified.

PRV = test: microbe, parasite or virus in culture; format: cell-based, Porcine Rotavirus; conditions: for SI (selectivity index), PRV: CC50/IC50; for pIC50: Rotavirus C, Vero, 72 h, read-out: PRV infection inhibition concentration IC50
[6] = Cytotoxicity, MDBK cell tests; conditions: bovine, MDBK cells
[7] = system: PRRSV (NA type, VR-2332 strain); test: PRRSV infection inhibition in Marc-145 cells (immunofluorescence staining); format: cell-based, Porcine Reproductive and Respiratory Syndrome virus; conditions: for SI (selectivity index), PRRSV: CC50/IC50; for pIC50: Porcine reproductive and respiratory syndrome virus, MARC145, 72 h, Marc-145 cells, 100 TCID50/ml PRRSV, three days after treatment, read-out: PRRSV infection inhibition concentration IC50
NDV = test: microbe, parasite or virus in culture; format: cell-based, Avian Newcastle Disease virus; conditions: for SI (selectivity index), NDV: CC50/IC50; for pIC50: read-out: NDV infection inhibition concentration IC50
MDCK cell line = test: Cytotoxicity, MDCK cell tests; conditions: read-out: CC50 (Table 10, CPV); cytotoxicity
BVDV = BVDV infection inhibition in MDBK cells (RT-qPCR); format: cell-based, Bovine Viral Diarrhea virus
Experimental: The next day, BVDV of 200 TCID50/well and inosine, xanthosine and guanosine in the dialdehyde and acyclic diol forms were treated to the cells simultaneously, and after 4 days, using commercialized Viral gene (DNA/RNA) extraction kit (iNtRON, 101410754), RNA was isolated.
For the isolated RNA, using BVDV-specific primers (F-[…] , R-[…] ) and realtime RT-qPCR experimental method (94° C., 10 minutes 1 cycle, 94° C., 10 seconds, 53° C., 20 seconds, 72° C., 30 seconds 35 cycles), the antiviral efficacy of the materials was verified.

MDBK cell line = test: Cytotoxicity, MDBK cell tests; conditions: read-out: CC50 (Table 9, BRV); cytotoxicity
[8] = avian paramyxovirus 1, Vero, 72 h

Row | Molecule | CC50 [1] [mM] | CC50 (in vitro) [mM] | SI (selectivity index), SIV [2] | pIC50 [2] | CC50 [3] [mM] | CC50 [4] [mM] | SI (selectivity index), BRV (BRV) | pIC50 (BRV) | CC50 (Vero cell line) [mM] | SI (selectivity index), PEDV [5] | pIC50 [5] | pIC50 (IBV; Avian coronavirus, Vero, 96 h) | SI (selectivity index), IBV (IBV) | SI (selectivity index), PCV2 (PCV2) | pIC50 (PCV2) | SI (selectivity index), PRV (PRV) | pIC50 (PRV) | CC50 [6] [mM] | SI (selectivity index), PRRSV [7] | pIC50 [7] | other results
1 | Nc1nc2c(ncn2[C@@H](CO)OC(CO)CO)c(=O)[nH]1 [Acyclic diol-guanosine, acyclic diol form of guanosine] | > 8 | > 10 | >2.1 | 2.32 | > 10 | > 10 | >5.7 | 2.75 | > 10 | >5.6 | 2.75 | 2.75 | >5.6 | >4.3 | 2.63 | >2.9 | 2.47 | > 10 | >17.5 | 3.34 | inhibition at 8000 µM (CPV; Canine parvovirus, MDCK, at 8000 μM, read-out: CPV infection inhibition efficacy): 18%; CPV virus titer reduction efficacy (CPV; at 8000 μM): ≥ 1 log10; SI (selectivity index), NDV (NDV): >1.5; pIC50 (NDV; [8]): 2.17
2 | O=c1[nH]cnc2c1ncn2[C@@H](CO)OC(CO)CO [Acyclic diol-inosine, acyclic diol form of inosine] | > 8 | > 10 | >1.6 | 2.21 | > 10 | > 10 | >5.2 | 2.71 | > 10 | >3.6 | 2.56 | 2.57 | >3.8 | >12.9 | 3.11 | >3.5 | 2.55 | > 10 | >17.6 | 3.34 | SI (selectivity index), CPV (CPV): >4.6; pIC50 (CPV; Canine parvovirus): 2.66; CC50 (MDCK cell line): > 10 mM; SI (selectivity index), NDV (NDV): >2.3; pIC50 (NDV; [8]): 2.35
3 | O=c1[nH]c(=O)c2ncn([C@@H](CO)OC(CO)CO)c2[nH]1 [Acyclic diol-xanthosine, acyclic diol form of xanthosine] | > 8 | > 10 | >1.5 | 2.17 | > 10 | > 10 | >6.4 | 2.81 | > 10 | >4.4 | 2.64 | – | – | >10.1 | 3.00 | >2.9 | 2.47 | > 10 | >20 | 3.40 | SI (selectivity index), CPV (CPV): >4.6; pIC50 (CPV; Canine parvovirus): 2.66; CC50 (MDCK cell line): > 10 mM; inhibition at 8000 µM (NDV; avian paramyxovirus 1, Vero, read-out: NDV infection inhibition efficacy): 39.4%
4 | O=C[C@@H](CO)O[C@H](C=O)n1cnc2c(=O)[nH]cnc21 [Dialdehyde-inosine, dialdehyde form of inosine] | > 10 | > 10 | >18.1 | 3.26 | > 10 | > 10 | >93.8 | 3.97 | > 10 | >22.3 | 3.35 | 4.12 | >130 | >12.2 | 3.09 | >103.5 | 4.02 | > 10 | >105.3 | 4.02 | SI (selectivity index), CPV (CPV): >5.9; pIC50 (CPV; Canine parvovirus): 2.77; CC50 (MDCK cell line): > 10 mM; pIC50 (BVDV; Bovine viral diarrhea virus isolates and strains, 96 h, MDBK cells, 200 TCID50/well BVDV, after 4 days, read-out: BVDV infection inhibition concentration IC50): 3.96; SI (selectivity index), BVDV (BVDV; CC50/IC50): >90.8; CC50 (MDBK cell line): > 10 mM; SI (selectivity index), NDV (NDV): >21.3; pIC50 (NDV; [8]): 3.33
5 | dialdehyde form of inosine [Dialdehyde-inosine] | – | – | – | – | – | – | – | – | – | – | – | – | – | – | – | – | – | – | – | – | pIC50 (IBV; Vero cells, 200 TCID50/well IBV, after 4 days): 4.12; pIC50 (NDV; Vero cells, 200 TCID50/well NDV, after 3 days): 3.33
